According to ChEMBL document CHEMBL4630901 (2021):

Key:
[1] = target: Alpha-2A adrenergic receptor (Homo sapiens, UniProt P08913); test: GPCRScan assay: inhibition of Alpha2A; parameters: radioligand conc. used [nm] 1.0 – 3.0, parental cells stable MDCK
[2] = target: Sigma non-opioid intracellular receptor 1 (Homo sapiens) (UniProt Q99720); conditions: Compound concentration 10.0 uM
[3] = target: Progesterone receptor (Homo sapiens) (UniProt P06401); conditions: Compound concentration 10.0 uM
[4] = target: T1, Prostaglandin D2 receptor (Homo sapiens) (UniProt Q13258); test: Prostanoid DP Eurofins-Panlabs radioligand binding assay; parameters: ligand concentration 2 nM
T1 sequence (whole entry): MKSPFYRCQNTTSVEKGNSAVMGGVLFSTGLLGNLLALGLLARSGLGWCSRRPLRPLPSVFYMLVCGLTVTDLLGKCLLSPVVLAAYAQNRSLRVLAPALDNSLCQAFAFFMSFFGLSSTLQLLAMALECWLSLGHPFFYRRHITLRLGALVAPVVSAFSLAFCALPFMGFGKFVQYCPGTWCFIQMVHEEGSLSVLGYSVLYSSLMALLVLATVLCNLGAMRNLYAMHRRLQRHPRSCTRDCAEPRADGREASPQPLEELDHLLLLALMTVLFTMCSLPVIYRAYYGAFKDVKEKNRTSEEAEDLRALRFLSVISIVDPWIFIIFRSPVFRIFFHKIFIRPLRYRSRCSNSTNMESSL

[5] = target: Beta-2 adrenergic receptor (Homo sapiens) (UniProt P07550); conditions: Compound concentration 10.0 uM
Sequence of Beta-2 adrenergic receptor (Homo sapiens) (P07550 whole entry, looked up): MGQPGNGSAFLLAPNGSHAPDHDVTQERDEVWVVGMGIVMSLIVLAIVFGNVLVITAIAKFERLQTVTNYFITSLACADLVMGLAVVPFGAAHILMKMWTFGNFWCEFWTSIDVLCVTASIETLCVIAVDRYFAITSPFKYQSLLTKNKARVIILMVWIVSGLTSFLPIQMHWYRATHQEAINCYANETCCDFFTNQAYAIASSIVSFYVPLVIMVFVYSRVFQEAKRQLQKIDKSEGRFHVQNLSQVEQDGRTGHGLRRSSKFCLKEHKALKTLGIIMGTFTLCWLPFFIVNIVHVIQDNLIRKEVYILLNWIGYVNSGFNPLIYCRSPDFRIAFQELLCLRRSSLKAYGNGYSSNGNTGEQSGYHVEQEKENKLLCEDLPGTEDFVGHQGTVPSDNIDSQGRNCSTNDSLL

[6] = target: T2, Glutamate NMDA receptor (Rattus norvegicus) (UniProt P35439+Q00959+Q00960+Q00961+Q62645+Q8VHN2+Q9R1M7); conditions: Compound concentration 10.0 uM
[7] = target: Prostaglandin E2 receptor EP4 subtype (Homo sapiens) (UniProt P35408); test: Inhibition of Prostanoid EP4 at 10 µM in the Eurofins-Panlabs radioligand binding assay (Eurofins_assay_268420); parameters: ligand concentration 1 nM
Sequence of Prostaglandin E2 receptor EP4 subtype (Homo sapiens) (P35408 whole entry): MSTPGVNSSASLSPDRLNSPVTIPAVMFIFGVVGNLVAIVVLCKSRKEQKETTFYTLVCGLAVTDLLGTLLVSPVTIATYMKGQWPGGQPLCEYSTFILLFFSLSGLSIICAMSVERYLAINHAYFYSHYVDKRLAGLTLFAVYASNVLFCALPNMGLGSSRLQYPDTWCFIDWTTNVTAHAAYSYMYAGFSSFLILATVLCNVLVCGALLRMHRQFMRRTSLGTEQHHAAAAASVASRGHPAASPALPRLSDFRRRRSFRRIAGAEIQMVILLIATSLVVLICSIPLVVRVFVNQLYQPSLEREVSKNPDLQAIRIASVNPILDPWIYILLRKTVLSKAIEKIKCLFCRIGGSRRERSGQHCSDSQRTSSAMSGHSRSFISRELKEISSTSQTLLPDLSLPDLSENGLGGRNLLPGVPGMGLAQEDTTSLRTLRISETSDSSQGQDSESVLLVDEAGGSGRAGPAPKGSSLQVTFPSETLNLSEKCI

[8] = target: T2, Glutamate NMDA receptor (Rattus norvegicus); conditions: Compound concentration 10.0 uM; remark: listed apart in the source
[9] = target: Adenosine Transporter (Cavia porcellus) (UniProt H0V4R7+H0UUG1+H0V3Z5); test: Inhibition of Transporter, Adenosine at compound concentration of 10.0 uM in the Eurofins-Panlabs radioligand binding assay (Eurofins_assay_202000); assay type: protein assay; parameters: ligand concentration 0.5 nM, non-specific ligand with concentration 5 uM Nitrobenzylthioinosine, incubation time 30 min, incubation temperature 25 C; conditions: Compound concentration 10.0 uM
[10] = target: 5-hydroxytryptamine receptor 2B (Homo sapiens) (UniProt P41595); conditions: Compound concentration 10.0 uM
Sequence of 5-hydroxytryptamine receptor 2B (Homo sapiens) (P41595 whole entry): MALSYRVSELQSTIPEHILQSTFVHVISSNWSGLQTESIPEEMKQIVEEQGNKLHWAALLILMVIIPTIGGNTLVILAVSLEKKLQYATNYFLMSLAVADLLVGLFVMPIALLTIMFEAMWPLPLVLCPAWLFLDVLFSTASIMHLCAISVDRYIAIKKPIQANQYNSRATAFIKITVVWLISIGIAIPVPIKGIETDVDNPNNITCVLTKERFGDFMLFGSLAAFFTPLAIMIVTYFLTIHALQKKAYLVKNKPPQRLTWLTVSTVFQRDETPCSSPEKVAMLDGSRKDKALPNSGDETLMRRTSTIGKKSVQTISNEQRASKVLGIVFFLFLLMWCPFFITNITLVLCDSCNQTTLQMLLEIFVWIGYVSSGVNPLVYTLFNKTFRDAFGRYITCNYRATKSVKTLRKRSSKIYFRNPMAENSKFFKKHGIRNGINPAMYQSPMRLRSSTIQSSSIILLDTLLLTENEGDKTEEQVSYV

[11] = target: T3, Alpha-1A adrenergic receptor (Homo sapiens) (UniProt P35348); conditions: Rattus norvegicus; Compound concentration 10.0 uM
T3 sequence (whole entry): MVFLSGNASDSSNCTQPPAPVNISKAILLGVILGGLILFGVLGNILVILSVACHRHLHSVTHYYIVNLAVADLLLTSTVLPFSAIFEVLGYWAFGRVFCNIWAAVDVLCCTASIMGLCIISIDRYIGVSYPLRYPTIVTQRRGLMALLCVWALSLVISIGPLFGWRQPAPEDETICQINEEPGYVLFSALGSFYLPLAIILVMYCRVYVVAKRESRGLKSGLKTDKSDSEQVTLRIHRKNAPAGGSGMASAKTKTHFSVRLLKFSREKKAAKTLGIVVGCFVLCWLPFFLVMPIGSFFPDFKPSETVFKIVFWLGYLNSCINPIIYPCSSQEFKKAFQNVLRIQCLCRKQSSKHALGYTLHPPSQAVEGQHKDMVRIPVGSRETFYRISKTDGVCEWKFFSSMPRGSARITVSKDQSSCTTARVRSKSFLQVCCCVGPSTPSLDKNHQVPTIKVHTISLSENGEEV

[12] = target: 5-hydroxytryptamine receptor 2A (Homo sapiens) (UniProt P28223); conditions: Compound concentration 10.0 uM
Sequence of 5-hydroxytryptamine receptor 2A (Homo sapiens) (P28223 whole entry): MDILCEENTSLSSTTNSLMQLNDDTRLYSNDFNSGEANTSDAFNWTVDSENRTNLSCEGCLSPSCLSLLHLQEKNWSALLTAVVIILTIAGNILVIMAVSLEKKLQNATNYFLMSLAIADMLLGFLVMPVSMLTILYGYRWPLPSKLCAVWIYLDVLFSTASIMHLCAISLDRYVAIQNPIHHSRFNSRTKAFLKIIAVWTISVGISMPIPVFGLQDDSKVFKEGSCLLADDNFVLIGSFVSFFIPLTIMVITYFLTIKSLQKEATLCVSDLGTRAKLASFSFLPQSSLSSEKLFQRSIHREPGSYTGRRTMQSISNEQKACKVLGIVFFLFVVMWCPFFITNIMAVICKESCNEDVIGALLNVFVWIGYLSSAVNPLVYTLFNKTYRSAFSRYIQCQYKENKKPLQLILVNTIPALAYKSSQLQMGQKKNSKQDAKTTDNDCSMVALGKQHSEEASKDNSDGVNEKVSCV

[13] = target: D(1A) dopamine receptor (Homo sapiens) (UniProt P21728); conditions: Compound concentration 10.0 uM
Homo sapiens = organism: Homo sapiens; test: Inhibition of Nicotinic Acetylcholine at compound concentration of 10.0 uM in the Eurofins-Panlabs radioligand binding assay (Eurofins_assay_258590); assay type: protein-complex assay; conditions: Compound concentration 10.0 uM
[14] = target: Prostaglandin F2-alpha receptor (Homo sapiens, UniProt P43088); test: Prostanoid FP Eurofins-Panlabs radioligand binding assay; parameters: ligand concentration 1 nM
Sequence of Prostaglandin F2-alpha receptor (P43088 whole entry): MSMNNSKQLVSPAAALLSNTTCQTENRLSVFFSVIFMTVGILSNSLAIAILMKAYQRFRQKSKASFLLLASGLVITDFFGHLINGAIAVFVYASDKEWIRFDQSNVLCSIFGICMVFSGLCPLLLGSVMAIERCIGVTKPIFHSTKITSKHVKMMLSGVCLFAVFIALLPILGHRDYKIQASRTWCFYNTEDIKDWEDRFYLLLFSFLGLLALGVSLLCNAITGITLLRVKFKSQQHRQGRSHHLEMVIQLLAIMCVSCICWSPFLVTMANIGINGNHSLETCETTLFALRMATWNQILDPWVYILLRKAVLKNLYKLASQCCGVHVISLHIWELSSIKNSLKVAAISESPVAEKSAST

[15] = target: GABA-A receptor; anion channel (Rattus norvegicus) (UniProt O09028+P15431+P18506+P18508+P19969+P20236+P23574+P23576+P28471+P28473+P30191+P62813+P63079+P63138+Q91ZM7+Q9ES14); conditions: Compound concentration 10.0 uM
[16] = target: Glutamate receptor ionotropic, kainate (Rattus norvegicus) (UniProt P22756+Q01812+P42260+P42264+Q63273); test: Inhibition of Glutamate, Kainate at 10 µM in the Eurofins-Panlabs radioligand binding assay (Eurofins_assay_232700); conditions: Compound concentration 10.0 uM
[17] = target: Sodium-dependent noradrenaline transporter (Homo sapiens) (UniProt P23975); conditions: Compound concentration 10.0 uM
Sequence of Sodium-dependent noradrenaline transporter (Homo sapiens) (P23975 whole entry): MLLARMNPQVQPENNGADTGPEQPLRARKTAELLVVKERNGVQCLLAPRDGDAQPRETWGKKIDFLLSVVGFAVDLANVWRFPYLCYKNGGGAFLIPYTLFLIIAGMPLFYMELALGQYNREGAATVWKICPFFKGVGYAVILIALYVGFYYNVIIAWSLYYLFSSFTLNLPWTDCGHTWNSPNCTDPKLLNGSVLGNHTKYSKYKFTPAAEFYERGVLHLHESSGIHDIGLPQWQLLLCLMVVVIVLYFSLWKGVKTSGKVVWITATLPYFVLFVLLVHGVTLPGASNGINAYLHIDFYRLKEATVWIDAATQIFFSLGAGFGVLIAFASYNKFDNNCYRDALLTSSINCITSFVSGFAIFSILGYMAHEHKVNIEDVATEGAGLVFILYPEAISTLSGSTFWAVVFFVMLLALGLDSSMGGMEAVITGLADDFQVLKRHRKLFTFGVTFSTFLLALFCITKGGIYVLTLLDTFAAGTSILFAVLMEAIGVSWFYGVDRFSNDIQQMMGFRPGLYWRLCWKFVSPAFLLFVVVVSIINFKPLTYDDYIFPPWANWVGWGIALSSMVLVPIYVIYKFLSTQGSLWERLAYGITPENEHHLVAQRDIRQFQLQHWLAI

[18] = target: Type-1 angiotensin II receptor (Homo sapiens) (UniProt P30556); conditions: Compound concentration 10.0 uM
Sequence of Type-1 angiotensin II receptor (Homo sapiens) (P30556 whole entry): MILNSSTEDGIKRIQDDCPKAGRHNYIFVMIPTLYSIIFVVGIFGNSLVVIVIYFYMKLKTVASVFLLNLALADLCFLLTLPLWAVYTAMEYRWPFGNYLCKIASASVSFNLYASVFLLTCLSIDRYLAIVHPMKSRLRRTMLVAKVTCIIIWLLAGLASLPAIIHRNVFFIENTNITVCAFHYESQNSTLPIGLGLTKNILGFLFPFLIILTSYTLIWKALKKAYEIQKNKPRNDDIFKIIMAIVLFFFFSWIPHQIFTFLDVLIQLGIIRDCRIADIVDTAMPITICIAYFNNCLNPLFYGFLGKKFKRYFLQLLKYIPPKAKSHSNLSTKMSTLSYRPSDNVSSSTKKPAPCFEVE

[19] = target: Adenosine receptor A1 (Homo sapiens) (UniProt P30542); conditions: Compound concentration 10.0 uM
Sequence of Adenosine receptor A1 (Homo sapiens) (P30542 whole entry): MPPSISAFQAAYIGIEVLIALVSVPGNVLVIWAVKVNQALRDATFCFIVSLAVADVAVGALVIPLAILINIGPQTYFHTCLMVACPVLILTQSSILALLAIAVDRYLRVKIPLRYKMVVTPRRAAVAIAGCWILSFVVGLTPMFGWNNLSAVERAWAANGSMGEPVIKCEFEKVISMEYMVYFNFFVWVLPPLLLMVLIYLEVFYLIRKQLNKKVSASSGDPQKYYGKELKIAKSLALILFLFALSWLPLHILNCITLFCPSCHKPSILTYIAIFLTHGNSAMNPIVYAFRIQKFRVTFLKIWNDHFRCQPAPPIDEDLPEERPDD

[20] = target: Kappa-type opioid receptor (Homo sapiens) (UniProt P41145); conditions: Compound concentration 10.0 uM
Sequence of Kappa-type opioid receptor (Homo sapiens) (P41145 whole entry): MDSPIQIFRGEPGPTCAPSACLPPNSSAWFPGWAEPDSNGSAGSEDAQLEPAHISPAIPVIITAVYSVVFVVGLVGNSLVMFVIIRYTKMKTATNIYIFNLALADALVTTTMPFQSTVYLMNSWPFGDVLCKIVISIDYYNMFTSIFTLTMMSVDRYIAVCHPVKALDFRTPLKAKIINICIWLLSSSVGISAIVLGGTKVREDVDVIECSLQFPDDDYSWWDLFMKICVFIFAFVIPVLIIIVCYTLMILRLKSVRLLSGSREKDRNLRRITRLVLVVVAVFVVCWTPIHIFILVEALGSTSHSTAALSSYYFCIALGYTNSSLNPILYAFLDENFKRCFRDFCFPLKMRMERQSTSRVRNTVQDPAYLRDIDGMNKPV

[21] = target: Adenosine receptor A2a (Homo sapiens) (UniProt P29274); conditions: Compound concentration 10.0 uM
[22] = Compound concentration 0.001 uM

Sequence of Sigma non-opioid intracellular receptor 1 (Homo sapiens) (Q99720 whole entry): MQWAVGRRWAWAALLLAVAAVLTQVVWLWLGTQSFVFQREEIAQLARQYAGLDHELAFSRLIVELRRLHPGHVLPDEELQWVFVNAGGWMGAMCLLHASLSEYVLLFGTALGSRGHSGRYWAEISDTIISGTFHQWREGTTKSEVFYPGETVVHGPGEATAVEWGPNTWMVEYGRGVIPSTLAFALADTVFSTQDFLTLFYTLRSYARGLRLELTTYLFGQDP
Sequence of Alpha-2A adrenergic receptor (P08913 whole entry): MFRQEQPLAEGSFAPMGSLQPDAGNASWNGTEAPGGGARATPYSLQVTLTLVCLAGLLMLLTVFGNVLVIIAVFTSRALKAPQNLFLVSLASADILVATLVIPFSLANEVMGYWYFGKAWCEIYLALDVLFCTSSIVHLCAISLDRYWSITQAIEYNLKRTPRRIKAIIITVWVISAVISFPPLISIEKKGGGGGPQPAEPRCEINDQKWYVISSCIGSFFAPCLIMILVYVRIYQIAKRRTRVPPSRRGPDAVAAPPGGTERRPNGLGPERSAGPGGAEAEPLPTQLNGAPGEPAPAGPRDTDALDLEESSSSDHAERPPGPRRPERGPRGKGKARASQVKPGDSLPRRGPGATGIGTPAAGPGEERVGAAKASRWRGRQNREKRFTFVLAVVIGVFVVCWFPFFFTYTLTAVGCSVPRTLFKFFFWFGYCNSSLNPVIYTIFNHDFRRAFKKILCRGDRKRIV

Cc1c(N2CCNCC2)nc2ccc(Br)cc2c1C(=O)NC[C@H](CCC(=O)O)c1ccccc1Cl [BAY-403] was tested. Which Ki [1] did it give?
Its Ki is 8.47 µM.

What about the inhibition [2] of the same compound?
Its inhibition is 36.5%.

Which results are given for Cc1c(N2CCCC2)nc2ccc(Br)cc2c1C(=O)NC[C@H](CCC(=O)O)c1ccccc1Cl [BAY-6672]?
inhibition [3]: 14%; inhibition [4, 22]: 6%; inhibition ([4]; Compound concentration 0.01 uM): 6%; inhibition ([4]; Compound concentration 0.1 uM): 18%; inhibition ([4]; Compound concentration 1.0 uM): 24%; inhibition ([4]; Compound concentration 10.0 uM): 42%; inhibition [5]: 18%; inhibition [6]: -5%; inhibition [7, 22]: -6%; inhibition ([7]; Compound concentration 0.01 uM): -1%; inhibition ([7]; Compound concentration 0.1 uM): 6%; inhibition ([7]; Compound concentration 1.0 uM): 17%; inhibition ([7]; Compound concentration 10.0 uM): 48%; inhibition [8]: 7%; inhibition [9]: 10%; inhibition [10]: 12%; inhibition [11]: 6%; inhibition [12]: -7%; inhibition [13]: 1%; inhibition (Homo sapiens): 3%; inhibition [14, 22]: 7%; inhibition ([14]; Compound concentration 0.01 uM): 35%; inhibition ([14]; Compound concentration 0.1 uM): 79%; inhibition ([14]; Compound concentration 1.0 uM): 94%; inhibition ([14]; Compound concentration 10.0 uM): 97%; inhibition [15]: 26%; inhibition [16]: 11%; inhibition [17]: 32%; inhibition [18]: 11%; inhibition [19]: 5%; inhibition [20]: 15%; inhibition [21]: 2%
